Laboratory results published in patent publication US20090117593A1, “T. Cruzi-derived neurotrophic agents and methods of use therefor” (Tufts University, priority 2006, published 2009).
“Also recorded” adds a separate entry of the source.

Legend:
IL-6 [1] = assay: IL-6 secretion by PBMC (ELISA); format: cell-based, human; conditions: 24 hours
Method: (§1) Primary cultures of human intestinal microvascular endothelial cells (HIMEC) isolated from normal jejunal mucosa/submucosal tissue were prepared as described (Strong et al., Gastroenterology 114:1244-1256 (1998)). The HIMEC were cultured in fibronectin-coated plasticware in MCDB medium (Sigma) supplemented with 20% FBS, 90 μg/ml heparin and 50 μg/ml endothelial cell growth factor (Sigma). T-24 cells (ATCC Accession No. HTB-4) were cultured in M199 medium supplemented with 10% FBS. PBMC were purified by Ficoll-Paque gradient as described (Current Protocols in Immunology, pp 7.1.1-7.1.2). Vero cells (ATCC Accession No. CCL-81) were grown in RPMI medium with 5% Nu serum and infected with the Silvio X-10/4 of T. cruzi as described previously (Chuenkova et al., J. Exp. Med. 181:1693-1703 (1995)).
Endothelial cells and T-24 cells were plated on 24-well plates at a density of 1×10^3 cells/well, while peripheral blood mononuclear cells (PBMC) were plated in the similar wells at 1×10^6/well. Triplicat cultures of cells were incubated test agents for a predetermined amount of time. […] Cytokines and chemokines released in the culture supernatants were measured by ELISA assay following the instructions of the manufacturer (Endogen). The cytokines tested were IL-1β, IL-4, IL-8, […], IL-12, IFN-γ, TNF-α, and the chemokines RANTES and MCP-1. Negative controls were cells incubated in medium containing polymixin B at 10 μg/ml, and positive controls were cells incubated with bacterial LPS at the low ng/ml range (for PBMC or HIMEC) or in the μg/ml range for carcinoma T-24 cells. In some experiments, IL-1β or TNFα were used as positive control for cytokine release.
TR peptides (Table 2) were synthesized at the Tufts Synthesis Facility (Boston, Mass.). Each peptide was purified by HPLC, and the number of amino acids and molecular weight of each peptide verified by mass spectrometry. Peptides were dissolved in growth medium (10% FCS in RPMI) and added at various concentrations to 1×10^6 PBMC/well in 24-well plates. After 24 hours, IL-6 was assayed by ELISA in the conditioned supernatants.

PC12 cells [2] = format: cell-based; conditions: serum-free RPMI/0.2% BSA, collagen coated dishes, 16-17 hours
PC12 cells [3] = assay: Protection of PC12 cells from apoptosis induced by trophic factor withdrawal (DAPI, TUNEL); format: cell-based; conditions: serum-free RPMI-1640/0.2% BSA, 17 hours, DAPI or TUNEL
Description: PC12 cells were obtained from ATCC (Manassas, Va. (Accession No. CRL-1721)) and cultured on collagen-coated dishes in RPMI 1640 supplemented with 10% horse serum and 5% fetal bovine serum (Greene, L., and Tishler, A., Proc. Natl. Acad. Sci. USA, 73:2424-2428 (1976)). For differentiation and survival experiments, cells were washed three times in serum-free RPMI/0.2% BSA, plated in the same medium in collagen-coated plastic dishes at 2×10^5/ml, without and with growth factors, TS, recombinant proteins, synthetic peptides, for the time and concentrations indicated in the Figures.
Cell staining with 4,6-diamino-2-phenylindole (DAPI). Cells were fixed with 4% formaldehyde in PBS for 5 minutes, washed with PBS, stained with 10 μg/ml DAPI (Sigma) for 2 minutes, washed with PBS, and visualized under UV light using a fluorescent microscope. About 300-400 cells were examined under the microscope to determine the percentage of apoptotic cells.
Cell DNA nick end labeling (TUNEL) (Gavrieli, Y. et al., J. Cell. Biol., 119:493-501 (1992)) assay was performed using a kit purchased from Boehringer Mannheim as described by the manufacturer.
Protection against apoptosis of PC12 cells in serum-free medium containing a test agent (agent N) (e.g., protection induced by TS, TS fragments, NGF or other growth factors), was calculated by the formula: 100%−[(apoptosis(%) of cells kept in RPMI containing test agent N÷apoptosis (%) of cells kept in RPMI)×100%]. Testing the effect of Wortmannin (Sigma) and LY294002 (Sigma) in inhibiting the neuroprotection of TS was performed following the protocol described by others (Yao, R., and Cooper, G., Science, 267:2003-2006 (1995); D'Mello, et al., J. Neurosci., 17:1548-1560 (1997)). In brief, PC12 cells were switched from growth medium to RPMI without and with TS or various other growth factors. After 24 hours, Wortmannin and LY294002 were added to the cultures. After another 24 hours, cells were examined for apoptosis by the DAPI assay, as above.

[4] = tested on: PC12 cells or Schwann cells; assay: Inhibition of apoptosis of PC12 cells or Schwann cells by synthetic peptides; format: cell-based
IL-6 [5] = assay: IL-6 secretion by HIMEC (ELISA); format: cell-based, human; conditions: 24 hours
Method: as §1
Endothelial cells and T-24 cells were plated on 24-well plates at a density of 1×10^3 cells/well, while peripheral blood mononuclear cells (PBMC) were plated in the similar wells at 1×10^6/well. Triplicat cultures of cells were incubated test agents for a predetermined amount of time. […] Cytokines and chemokines released in the culture supernatants were measured by ELISA assay following the instructions of the manufacturer (Endogen). The cytokines tested were IL-1β, IL-4, IL-8, IL-1, IL-12, IFN-γ, TNF-α, and the chemokines RANTES and MCP-1. […]

PC12^TrkA cells = assay: Survival of PC12^TrkA cells in serum-free medium (MTT, DAPI); format: cell-based; conditions: peptides 10 μM, PDNF 500 ng/ml, NGF 30 ng/ml, 48 hours to 5 days
Method: PC12^nnr5 and PC12^TrkA cells were grown in RPMI with 10% FCS and 5% horse serum as described earlier (Green et al., J. Cell Biol. 102:830-843 (1986); Chuenkova and Pereira, Mol. Biol. Cell 11: 1487-1498 (2000)). Two approaches were used to study neurite extension: 1) Plating cells (1×10^5 cells/ml) on plastic wells (LABTECH 16-well slides, Nalge Nunc International, Naperville, Ill.) coated with synthetic peptides (100 μg/ml water, 4° C., overnight) or rat tail collagen (1 mg/ml PBS, 4° C., overnight). 2) Adding peptides in solution to cells plated on uncoated substratum. Cells were grown in 1% FCS-containing RPMI for 72 hours, and reacted with 0.5 mg/ml MTT (3-[4,5-dimethylthiazol-2-yl]-2,5-diphenyltetrazolium bromide) (SIGMA, St. Louis, Mo.) in serum-free medium for 1 hour at 37° C. Light microscopy was used to visualize viable cells (i.e., containing reduced insoluble formazan) with or without extended neurites (>5 μm in length). Cell viability was also determined using the CELLTITER 96 assay (Promega, Madison, Wis.) as follows: Cells, plated at 2×10^5/ml, were treated with peptides in serum-free medium for different times and exposed to CELLTITER 96 Aqueous One Solution for 1 hour at 37° C. 2) Apoptotic cells were identified by staining with DAPI (250 ng/ml) (SIGMA) 48 hours after cells were exposed to serum-free medium with or without additives in solution, as described earlier (Chuenkova and Pereira, Mol. Biol. Cell 11:1487-1498 (2000)). […]

Erk1/2 = Erk1/2 phosphorylation in PC12 cells; format: cell-based; conditions: 5 minutes; control peptides 10 μM
Method: Activation state of TrkA, Erk1/2 and Akt kinases and transcription factor CREB was analyzed by assessing phosphorylation by Western blot with appropriate phospho-specific antibodies. For this, cells were plated in complete medium at a density of 3×10^5 cells/ml overnight on 6-well plates (BECTON DICKINSON LABWARE, Franklin Lakes, N.J.). The medium was changed to serum-free medium and the cells cultured for an additional 24 hours to reduce background phosphorylation. […] Antibody reaction was visualized by horseradish peroxidase (HRP)-conjugated secondary antibody and enhanced chemiluminescence kit (ECL). Some blots were stripped in appropriate buffer (50 mM Tris HCl, pH 7.8, 2% SDS, 1% β-mercaptoethanol) at 50° C. for 60 minutes and re-probed with p42/44MAPK, Akt or CREB antibody to ensure equal loading of proteins. For immunoprecipitation experiments, cell lysates were pre-adsorbed on protein G-Sepharose for 1 hour at 4° C. and after brief centrifugation supernatants were incubated with anti-TrkA antibody for 24 hours at 4° C. with gentle rocking. Formed immunocomplexes were captured on protein G-Sepharose, eluted with SDS-PAGE sample buffer and analyzed by immunoblotting with antibody against phospho-TrkA receptor.

[6] = tested on: primary cultures of rat Schwann cells; conditions: cited from earlier work
IL-6 [7] = assay: IL-6 secretion by normal human neutrophils; format: cell-based

| Substance | IL-6 secretion by PBMC (IL-6 [1]) | neurite outgrowth in PC12 cells (PC12 cells [2]) | effect of PI-3 kinase inhibitor LY294002 on the apoptosis suppressing effect of the peptide [4] | suppression of apoptosis of PC12 cells or Schwann cells [4] | also measured |
| --- | --- | --- | --- | --- | --- |
| DSSAHGAPSTPADSSAHGTPSTPVDSSAHGTPSTPADSSAHSTPSTPA [TR4] | active in promoting IL-6 release | – | – | – | – |
| RQRLPKRMGGSYRC [peptide C14] | – | had direct neurotrophic activity; also recorded: induce dose dependent outgrowth of neurites | inhibited by the PI-3 kinase inhibitor LY294002 | potent suppressors of apoptosis | protection of PC12 cells from apoptosis induced by trophic factor withdrawal (PC12 cells [3]): protected PC12 cells from apoptosis |
| VCNA: neuraminidase from Vibrio cholera [reference compound] | – | did not induce neurite outgrowth; also recorded: does not induce neurite outgrowth | – | – | protection of PC12 cells from apoptosis induced by trophic factor withdrawal (PC12 cells [3]): did not; IL-6 secretion by HIMEC (IL-6 [5]): did not stimulate detectable IL-6 secretion |
| VNASTAN [peptide CYFN] | – | – | inhibited by the PI-3 kinase inhibitor LY294002 | did not inhibit apoptosis | survival of PC12^TrkA cells in serum-free medium (PC12^TrkA cells): did not significantly promoted cell survival; Erk1/2 phosphorylation in PC12 cells (Erk1/2): did not activate Erk |
| DSSAHGAPSTPADSSAHGTPSTPVDSSAHGTPSTPADSSAHSTPSTPADSSAHSTPSTPA [TR5] | active in promoting IL-6 release | – | – | – | – |
| DSSAHGAPSTPADSSAHGTPSTPVDSSAHGTPSTPA [TR3] | less active | – | – | – | – |
| GNASQNYWEDAYRC [CYN2] | – | – | inhibited by the PI-3 kinase inhibitor LY294002 | suppressed apoptosis but was less active | – |
| QPLRRQRVVVVPLSPRLVLLAFCRQRLPLKRMGGSYRCVNASTAN [peptide C44] | – | had direct neurotrophic activity; also recorded: induce dose dependent outgrowth of neurites | inhibited by the PI-3 kinase inhibitor LY294002 | potent suppressors of apoptosis | protection of PC12 cells from apoptosis induced by trophic factor withdrawal (PC12 cells [3]): protected PC12 cells from apoptosis |
| lysophosphatidic acid | – | – | – | – | dose reported to be active as Schwann cell survival factor [6]: ≥ 10 nM |
| TNF-α | – | – | – | – | IL-6 production by normal human neutrophils (IL-6 [7]): did elicit secretion of IL-6 |
| RQRLPKRMGGSYRCVNASTAH [CFN1] | – | had direct neurotrophic activity | inhibited by the PI-3 kinase inhibitor LY294002 | potent suppressors of apoptosis | – |
| DSSAHGAPSTPA [peptide TR1] | less active | – | – | – | – |
| DSSAHGAPSTPADSSAHGTPSTPV [TR2] | less active | – | – | – | – |
| YSVDDGETWE [peptide B2] | – | did not induce neurite outgrowth; also recorded: did not promote neurite outgrowth | – | did not inhibit apoptosis | survival of PC12^TrkA cells in serum-free medium (PC12^TrkA cells; listed as BR): inactive; also recorded: did not significantly promoted cell survival |
